In US8952024B2, “Herbicidal pyrimidone derivatives” (E I du Pont de Nemours and Company, priority 2009, dated 2015):

How the values were obtained:
Assay type in all cases: in vivo
[1] = test system: windgrass (Apera spica-venti); assay: Test B postemergence plant response; conditions: Postemergence, scale 0 (no effect) to 100 (complete control)
How it was run: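 Plants grown in peat/vermiculite medium were sprayed postemergence at 2–18 cm height (1- to 4-leaf stage). After 13–15 days in the greenhouse, response was rated visually against untreated controls on a 0–100 scale (0 no effect, 100 complete control).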

rice (Oryza sativa) = assay: Test B flooded paddy test; conditions: for Plant response rating, Flood, Rice: 250 g ai/ha, flooded paddy test, visual rating on 0 to 100 scale (0 no effect, 100 complete control) after 13 to 15 days; for Plant response rating, Rice: Flood (flooded paddy test), 62 g ai/ha, 13 to 15 days
How it was run: (§1)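 Visual scores run from 0 (no effect) to 100 (complete control), assigned by comparison with controls 13 to 15 days after treatment. Test compounds went straight into water standing 3 cm above the soil, around plants at the 2-leaf stage kept in a greenhouse.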

[2] = test system: umbrella sedge (Cyperus difformis); assay: Test B flooded paddy test; conditions: for Plant response rating, Flood, Sedge, Umbrella: 250 g ai/ha, flooded paddy test, visual rating on 0 to 100 scale (0 no effect, 100 complete control) after 13 to 15 days; for Plant response rating, Sedge, Umbrella: Flood (flooded paddy test), 62 g ai/ha, 13 to 15 days
How it was run: as §1

[3] = test system: ducksalad (Heteranthera limosa); assay: Test B flooded paddy test; conditions: for Plant response rating, Flood, Ducksalad: 250 g ai/ha, flooded paddy test, visual rating on 0 to 100 scale (0 no effect, 100 complete control) after 13 to 15 days; for Plant response rating, Ducksalad: Flood (flooded paddy test), 62 g ai/ha, 13 to 15 days
How it was run: as §1

[4] = test system: barnyardgrass (Echinochloa crus-galli); assay: Test B flooded paddy test; conditions: for Plant response rating, Flood, Barnyardgrass: 250 g ai/ha, flooded paddy test, visual rating on 0 to 100 scale (0 no effect, 100 complete control) after 13 to 15 days; for Plant response rating, Barnyardgrass: Flood (flooded paddy test), 62 g ai/ha, 13 to 15 days
How it was run: as §1

[5] = test system: large crabgrass (Digitaria sanguinalis); assay: Test A pre-/postemergence plant response
How it was run: (§2)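 Formulated test chemicals (non-phytotoxic solvent, surfactant) were sprayed onto soil right after planting and simultaneously onto young plants at one to two leaves, 2 to 10 cm tall. Plants stayed in the greenhouse about ten days; injury was then visually scored against untreated controls, from 0 (no effect) to 100 (complete control).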

[6] = test system: velvetleaf (Abutilon theophrasti); assay: Test A pre-/postemergence plant response
How it was run: as §2

[7] = test system: morningglory (Ipomoea spp.); assay: Test A pre-/postemergence plant response
How it was run: as §2

[8] = test system: giant foxtail (Setaria faberii); assay: Test A pre-/postemergence plant response
How it was run: as §2

corn (Zea mays) = assay: Test A pre-/postemergence plant response
How it was run: as §2

[9] = test system: pigweed (Amaranthus retroflexus); assay: Test A pre-/postemergence plant response
How it was run: as §2

[10] = test system: wheat (Triticum aestivum); assay: Test A pre-/postemergence plant response
How it was run: as §2

[11] = test system: barnyardgrass (Echinochloa crus-galli); assay: Test A pre-/postemergence plant response
How it was run: as §2

[12] = 125 g ai/ha, visual rating after 13 to 15 days
[13] = scale 0 to 100, 0 is no effect, 100 is complete control
[14] = Postemergence, 125 g ai/ha, visual injury, 0 to 100 scale (0 no effect, 100 complete control), approx. ten days
[15] = Postemergence, 500 g ai/ha, 0 to 100 scale, 0 = no effect, 100 = complete control, approx. ten days
[16] = Preemergence, 125 g ai/ha, 0 to 100 scale, 0 = no effect, 100 = complete control
[17] = Preemergence, 500 g ai/ha, visual injury, 0 to 100 scale (0 no effect, 100 complete control), approx. ten days
[18] = scale of 0 to 100 where 0 is no effect and 100 is complete control

Cc1ccc(-n2c(-c3cccc(Cl)c3)ncc(C(=O)C3=C(O)CCCC3=O)c2=O)cc1 [Compound 39]
0: Plant response rating, Windgrass ([1]; 62 g ai/ha, 13 to 15 days) | Plant response rating, Rice (rice (Oryza sativa); [13]) | Plant response rating, Barnyardgrass [4, 13] | Corn plant response rating (corn (Zea mays); [14]) | Plant response rating, Corn (corn (Zea mays); [16]) | Plant response rating, Corn (corn (Zea mays); [17]) | Wheat plant response rating [10, 14] | Plant response rating, Wheat [10, 15] | Plant response rating, Wheat [10, 16] | Plant response rating, Wheat [10, 17]
30: Plant response rating, Flood, Barnyardgrass [4]
70: Plant response rating, Velvetleaf [6, 16]
40: Plant response rating, Morningglory [7, 16] | Plant response rating, Corn (corn (Zea mays); [15])
80: Plant response rating, Ducksalad [3, 13] | Crabgrass, Large plant response rating [5, 14] | Morningglory plant response rating [7, 14] | Foxtail, Giant plant response rating [8, 14]
5: Plant response rating, Windgrass [1, 12]
60: Plant response rating, Crabgrass, Large [5, 16] | Plant response rating, Morningglory [7, 17] | Plant response rating, Pigweed [9, 16] | Barnyardgrass plant response rating [11, 14]
100: Velvetleaf plant response rating [6, 14] | Plant response rating, Velvetleaf [6, 15] | Pigweed plant response rating [9, 14] | Plant response rating, Pigweed [9, 15]
15: Plant response rating, Flood, Rice (rice (Oryza sativa))
50: Plant response rating, Foxtail, Giant [8, 16]
10: Plant response rating, Barnyardgrass [11, 16]
90: Plant response rating, Flood, Sedge, Umbrella [2] | Plant response rating, Sedge, Umbrella [2, 13] | Plant response rating, Flood, Ducksalad [3] | Plant response rating, Crabgrass, Large [5, 15] | Plant response rating, Crabgrass, Large [5, 17] | Plant response rating, Velvetleaf [6, 17] | Plant response rating, Morningglory [7, 15] | Plant response rating, Foxtail, Giant [8, 15] | Plant response rating, Foxtail, Giant [8, 17] | Plant response rating, Pigweed [9, 17] | Plant response rating, Barnyardgrass [11, 15] | Plant response rating, Barnyardgrass [11, 17]

Cc1cccc(-n2c(-c3cccc(Cl)c3)ncc(C(=O)C3=C(O)CCCC3=O)c2=O)c1 [Compound 45]
85: Plant response rating, Flood, Sedge, Umbrella [2]
60: Plant response rating, Windgrass ([1]; 62 g ai/ha, 13 to 15 days) | Crabgrass, Large plant response rating [5, 14] | Plant response rating, Velvetleaf [6, 16]
90: Plant response rating, Flood, Ducksalad [3] | Plant response rating, Crabgrass, Large [5, 15] | Plant response rating, Morningglory [7, 17] | Plant response rating, Foxtail, Giant [8, 15] | Pigweed plant response rating [9, 14] | Barnyardgrass plant response rating [11, 14]
15: Plant response rating, Rice (rice (Oryza sativa); [18])
80: Morningglory plant response rating [7, 14] | Plant response rating, Foxtail, Giant [8, 17] | Plant response rating, Pigweed [9, 16] | Plant response rating, Barnyardgrass [11, 17]
40: Plant response rating, Wheat [10, 15] | Plant response rating, Barnyardgrass [11, 16]
100: Plant response rating, Crabgrass, Large [5, 17] | Velvetleaf plant response rating [6, 14] | Plant response rating, Velvetleaf [6, 15] | Plant response rating, Velvetleaf [6, 17] | Plant response rating, Morningglory [7, 15] | Plant response rating, Pigweed [9, 15] | Plant response rating, Pigweed [9, 17] | Plant response rating, Barnyardgrass [11, 15]
30: Plant response rating, Flood, Barnyardgrass [4]
50: Plant response rating, Crabgrass, Large [5, 16] | Foxtail, Giant plant response rating [8, 14]
70: Plant response rating, Windgrass [1, 12] | Plant response rating, Sedge, Umbrella [2, 18]
0: Plant response rating, Barnyardgrass [4, 18] | Plant response rating, Foxtail, Giant [8, 16] | Corn plant response rating (corn (Zea mays); [14]) | Plant response rating, Corn (corn (Zea mays); [16]) | Plant response rating, Corn (corn (Zea mays); [17]) | Wheat plant response rating [10, 14] | Plant response rating, Wheat [10, 16]
20: Plant response rating, Flood, Rice (rice (Oryza sativa)) | Plant response rating, Ducksalad [3, 18] | Plant response rating, Morningglory [7, 16] | Plant response rating, Corn (corn (Zea mays); [15]) | Plant response rating, Wheat [10, 17]
